What was measured:
[1] = system: mouse ACE; assay: In vivo ACE activity test: ACE content in kidney tissue by double antibody sandwich ELISA; parameters: species or system Kunming mice; conditions: for ACE content: male Kunming mice, kidney homogenate, intragastric 0.05 mmol/kg once a day for 7 days, 2 h after final dose
[2] = molecular target: angiotensin-converting enzyme (ACE) (UniProt P12822); format: biochemical; conditions: substrate HHL, 37° C., pH 8.3, hippuric acid at 228 nm
[3] = system: spontaneously hypertensive rats (SHR); assay: Blood pressure in SHR rats after one administration (tail pulse indirect pressure measurement); format: in vivo, rat
Description: (§1) SPF grade male spontaneously hypertensive model rats (SHR) (male, 12 weeks old, body weight 200 g±20 g) were divided into three groups: blank group, control group and sample group, with 6 rats each group. Animals were housed in the Shaanxi Provincial Biomedical Animal Laboratory at the School of Life Sciences of Northwest University at a temperature of 22° C. and a humidity of 50%, with 12 hours light/dark cycle and free to eat and drink water. The SHR rats were trained to adapt to blood pressure measurements after 5 days of adaptation to the environment. Prior to administration, the basal blood pressure of the rats in each group was measured and the systolic blood pressure was between 190±5 mmHg.
The systolic blood pressure of the experimental rats was measured by tail pulse indirect pressure measurement. […]
The particular measurement steps: the conscious rats were placed in the fixed box of the blood pressure meter. A heating plate at 30° C. was provided in the bottom of the fixed box, which was preheated for 10 min to expand the local blood vessels. […] After the signal was stabilized, the blood pressure was measured and the 5 readings with a change in blood pressure less than 10 mmHg were recorded, with an interval of 10 seconds. […]

[4] = system: spontaneously hypertensive rats (SHR); assay: Blood pressure in SHR rats after multiple administrations; format: in vivo, rat
Description: as §1
The particular measurement steps: the conscious rats were placed in the fixed box of the blood pressure meter. […] After the signal was stabilized, the blood pressure was measured and the 5 readings with a change in blood pressure less than 10 mmHg were recorded, with an interval of 10 seconds. […]
According to the above method and dose, rats were administered intragastrically continuously for 7 days, once a day. Blood pressure was measured 2 hours after administration. After the end of the administration, blood pressure was measured continuously for 7 days, once a day, and the change in blood pressure was recorded.

Chain of angiotensin-converting enzyme (ACE) (P12822 whole entry): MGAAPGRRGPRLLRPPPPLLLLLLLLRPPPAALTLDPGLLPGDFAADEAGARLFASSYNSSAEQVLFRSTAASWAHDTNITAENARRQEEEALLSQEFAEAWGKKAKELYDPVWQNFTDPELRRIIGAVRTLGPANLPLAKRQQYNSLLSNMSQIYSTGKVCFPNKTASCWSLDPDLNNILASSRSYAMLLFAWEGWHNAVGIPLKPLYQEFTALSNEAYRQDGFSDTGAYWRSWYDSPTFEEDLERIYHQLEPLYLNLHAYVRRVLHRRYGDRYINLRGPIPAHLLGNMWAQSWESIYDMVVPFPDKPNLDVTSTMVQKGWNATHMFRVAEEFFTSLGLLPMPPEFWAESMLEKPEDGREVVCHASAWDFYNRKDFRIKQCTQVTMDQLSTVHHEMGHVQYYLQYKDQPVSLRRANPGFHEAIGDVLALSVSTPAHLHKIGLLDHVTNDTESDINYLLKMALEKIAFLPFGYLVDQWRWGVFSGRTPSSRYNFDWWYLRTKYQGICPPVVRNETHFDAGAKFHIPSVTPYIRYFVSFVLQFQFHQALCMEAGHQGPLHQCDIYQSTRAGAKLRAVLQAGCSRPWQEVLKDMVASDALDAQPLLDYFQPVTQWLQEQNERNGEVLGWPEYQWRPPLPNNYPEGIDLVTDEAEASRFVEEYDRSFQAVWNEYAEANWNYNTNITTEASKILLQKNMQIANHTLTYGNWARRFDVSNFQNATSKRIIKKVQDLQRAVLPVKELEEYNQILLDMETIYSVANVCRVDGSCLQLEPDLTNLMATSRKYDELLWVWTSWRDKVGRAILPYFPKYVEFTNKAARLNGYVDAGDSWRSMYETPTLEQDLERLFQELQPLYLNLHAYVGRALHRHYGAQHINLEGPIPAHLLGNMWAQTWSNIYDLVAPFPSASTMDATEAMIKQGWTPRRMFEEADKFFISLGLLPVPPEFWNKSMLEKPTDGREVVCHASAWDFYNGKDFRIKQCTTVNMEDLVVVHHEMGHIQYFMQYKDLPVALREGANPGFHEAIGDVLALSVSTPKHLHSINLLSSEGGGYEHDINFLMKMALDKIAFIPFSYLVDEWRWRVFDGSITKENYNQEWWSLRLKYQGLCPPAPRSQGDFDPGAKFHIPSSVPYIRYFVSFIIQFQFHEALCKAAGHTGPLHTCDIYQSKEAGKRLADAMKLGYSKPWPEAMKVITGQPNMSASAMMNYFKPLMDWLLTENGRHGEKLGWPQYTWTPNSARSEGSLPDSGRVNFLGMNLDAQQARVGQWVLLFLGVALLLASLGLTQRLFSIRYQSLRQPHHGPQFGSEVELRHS

Compound | ACE content [1] [pg/mL] | IC50 [2] [nM] | other results
COc1cc(/C=C/C(=O)N[C@@H](C)C(=O)N2CCC[C@H]2C(=O)OC2CC3CCC2(C)C3(C)C)ccc1O (stereo partly drawn) [Compound 221S-27a] | 82 ± 11 | 44 ± 3 | 
CC1(C)C2CCC1(C)C(OC(=O)[C@@H]1CCCN1C(=O)CNC(=O)[C@H](O)Cc1ccc(O)c(O)c1)C2 (stereo partly drawn) [Compound 221S-15a] | 83 ± 11 | 33 ± 6 | 
CSCC[C@H](NC(=O)[C@H](O)Cc1ccc(O)c(O)c1)C(=O)N1CCC[C@H]1C(=O)OC1CC2CCC1(C)C2(C)C (stereo partly drawn) [Compound 221S-7a] | 71 ± 9 | 78 ± 5 | 
C[C@H](NC(=O)c1ccc(O)c(O)c1)C(=O)N1CCC[C@H]1C(=O)OC1CC2CCC1(C)C2(C)C (stereo partly drawn) [Compound 221S-30a] | 75 ± 8 | 35 ± 6 | 
CC(C)C[C@H](NC(=O)[C@H](O)Cc1ccc(O)c(O)c1)C(=O)N1CCC[C@H]1C(=O)OC1CC2CCC1(C)C2(C)C (stereo partly drawn) [Compound 221S-3a] | 79 ± 7 | 27 ± 7 | 
CC1(C)C2CCC1(C)C(OC(=O)[C@@H]1CCCN1C(=O)[C@@H]1CCCN1C(=O)[C@H](O)Cc1ccc(O)c(O)c1)C2 (stereo in doubt) [Compound 221S-6a] | 76 ± 5 | 43 ± 6 | 
C[C@H](NC(=O)c1cc(O)c(O)c(O)c1)C(=O)N1CCC[C@H]1C(=O)OC1CC2CCC1(C)C2(C)C (stereo partly drawn) [Compound 221S-31a] | 71 ± 13 | 31 ± 8 | 
CC(C)[C@H](NC(=O)[C@H](O)Cc1ccc(O)c(O)c1)C(=O)N1CCC[C@H]1C(=O)OC1CC2CCC1(C)C2(C)C (stereo partly drawn) [Compound 221S-2a] | 87 ± 8 | 37 ± 5 | 
CC1(C)C2CCC1(C)C(OC(=O)[C@@H]1CCCN1C(=O)[C@H](Cc1ccccc1)NC(=O)[C@H](O)Cc1ccc(O)c(O)c1)C2 (stereo partly drawn) [Compound 221S-8a] | 80 ± 7 | 65 ± 5 | 
C[C@H](NC(=O)/C=C/c1ccc(O)c(O)c1)C(=O)N1CCC[C@H]1C(=O)OC1CC2CCC1(C)C2(C)C (stereo partly drawn) [Compound 221S-28a] | 79 ± 8 | 29 ± 7 | 
CCC(C)[C@H](NC(=O)[C@H](O)Cc1ccc(O)c(O)c1)C(=O)N1CCC[C@H]1C(=O)OC1CC2CCC1(C)C2(C)C (stereo partly drawn) [Compound 221S-4a] | 82 ± 10 | 34 ± 7 | 
C[C@H](NC(=O)[C@H](O)Cc1ccc(O)c(O)c1)C(=O)N1CCC[C@H]1C(=O)OC1CC2CCC1(C)C2(C)C (stereo partly drawn) [Compound 221S-1a] | 64 ± 8 | 23 ± 9 | dose dependence of antihypertensive effect ([3]; single intragastric administration at different doses, within 6 hours (FIG. 3)): good dose-dependent relationship; antihypertensive effect (arterial systolic pressure) compared with captopril ([3]; single intragastric administration, within 6 hours (FIG. 2, 3)): antihypertensive effect was better than that of captopril; reduction of ACE content compared with captopril (in words) ([1]; intragastric 0.05 mmol/kg, 7 days, summary of Table 8): most significant reduction effect; dose dependence of effect on arterial systolic pressure ([4]; 7 days intragastric at different doses, 14 days (FIG. 5)): dose-dependent; antihypertensive effect (arterial systolic pressure) compared with captopril ([4]; intragastric once a day for 7 days, followed over 14 days (FIG. 4)): better antihypertensive effect than captopril
C[C@H](NC(=O)[C@@H](O)Cc1ccc(O)c(O)c1)C(=O)N1CCC[C@H]1C(=O)OC1CC2CCC1(C)C2(C)C (stereo partly drawn) [Compound 221S-1b] | 78 ± 12 | 33 ± 6 | 
CC(C)(C)[C@H](NC(=O)[C@H](O)Cc1ccc(O)c(O)c1)C(=O)N1CCC[C@H]1C(=O)OC1CC2CCC1(C)C2(C)C (stereo partly drawn) [Compound 221S-5a] | 89 ± 11 | 28 ± 9 | 
C[C@H](NC(=O)Cc1ccc(O)c(O)c1)C(=O)N1CCC[C@H]1C(=O)OC1CC2CCC1(C)C2(C)C (stereo partly drawn) [Compound 221S-29a] | 85 ± 8 | 38 ± 5 | 

From patent US11358985B2, “Tripeptide compound, preparation method therefor, and application thereof” (NORTHWEST UNIVERSITY, priority 2014, dated 2022)
